Reference: patent US12077503B2, “Substituted cyclic amides and their use as herbicides” (FMC CORPORATION, priority 2015, dated 2024)

Columns and labels:
Format in all cases: in vivo
[1] = system: barnyardgrass (Echinochloa crus-galli); assay: Test G Pre-Emergence Protocol; settings: Echinochloa crus-galli, pre-emergence, 312 h, evaluated after 13 days; for pest or weed control at 15.625 g/ha: 15.625 g ai/ha, read-out: Barnyard grass damage rating (100=total damage to plant; 0=no damage to plant); for pest or weed control at 62.5 g/ha: 62.5 g ai/ha, 100=total damage to plant, 0=no damage to plant, read-out: plant damage rating, Barnyardgrass; for pest or weed control at 250 g/ha: 250 g ai/ha, read-out: Barnyardgrass damage rating (100=total damage to plant; 0=no damage to plant)
Summary of the method: (§1)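 Glasshouse pre-emergence test: soil-sown seeds, sprayed after 1 d at 15.625, 62.5 or 250 g/ha. Conditions 24/16° C day/night, 14 h light, 65% humidity, watering twice daily. Rating 13 d post-spray (100 = total damage).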

[2] = system: corn (Zea mays); assay: Test G Pre-Emergence Protocol; settings: Zea mays, pre-emergence, 312 h, evaluated after 13 days; for plant injury at 15.625 g/ha: 15.625 g ai/ha; for plant injury at 15.625 g/ha / plant injury at 250 g/ha: read-out: Corn damage rating (100=total damage to plant; 0=no damage to plant); for plant injury at 62.5 g/ha: 62.5 g ai/ha, 100=total damage to plant, 0=no damage to plant, read-out: plant damage rating, Corn; for plant injury at 250 g/ha: 250 g ai/ha
Summary of the method: as §1

[3] = system: giant foxtail (Setaria faberi); assay: Test G Pre-Emergence Protocol; settings: Setaria faberi, pre-emergence, 312 h, evaluated after 13 days; for pest or weed control at 15.625 g/ha: 15.625 g ai/ha; for pest or weed control at 15.625 g/ha / pest or weed control at 250 g/ha: read-out: Foxtail, Giant damage rating (100=total damage to plant; 0=no damage to plant); for pest or weed control at 62.5 g/ha: 62.5 g ai/ha, 100=total damage to plant, 0=no damage to plant, read-out: plant damage rating, Foxtail, Giant; for pest or weed control at 250 g/ha: 250 g ai/ha
Summary of the method: as §1

[4] = system: ivy-leaved morning glory (Ipomoea hederacea); assay: Test G Pre-Emergence Protocol; settings: Ipomoea, pre-emergence, 312 h, evaluated after 13 days; for pest or weed control at 15.625 g/ha: 15.625 g ai/ha, read-out: Morning-glory, Ivy-leaved damage rating (100=total damage to plant; 0=no damage to plant); for pest or weed control at 62.5 g/ha: 62.5 g ai/ha, 100=total damage to plant, 0=no damage to plant, read-out: plant damage rating, Morningglory, Ivy-leaved; for pest or weed control at 250 g/ha: 250 g ai/ha, read-out: Morningglory, Ivy-leaved damage rating (100=total damage to plant; 0=no damage to plant)
Summary of the method: as §1

[5] = system: redroot pigweed (Amaranthus retroflexus); assay: Test G Pre-Emergence Protocol; settings: Amaranthus retroflexus, pre-emergence, 312 h, evaluated after 13 days; for pest or weed control at 15.625 g/ha: 15.625 g ai/ha; for pest or weed control at 15.625 g/ha / pest or weed control at 250 g/ha: read-out: Pigweed, Redroot damage rating (100=total damage to plant; 0=no damage to plant); for pest or weed control at 62.5 g/ha: 62.5 g ai/ha, 100=total damage to plant, 0=no damage to plant, read-out: plant damage rating, Pigweed, Redroot; for pest or weed control at 250 g/ha: 250 g ai/ha
Summary of the method: as §1

[6] = system: velvetleaf (Abutilon theophrasti); assay: Test G Pre-Emergence Protocol; settings: Abutilon theophrasti, pre-emergence, 312 h, evaluated after 13 days; for pest or weed control at 15.625 g/ha: 15.625 g ai/ha; for pest or weed control at 15.625 g/ha / pest or weed control at 250 g/ha: read-out: Velvetleaf damage rating (100=total damage to plant; 0=no damage to plant); for pest or weed control at 62.5 g/ha: 62.5 g ai/ha, 100=total damage to plant, 0=no damage to plant, read-out: plant damage rating, Velvetleaf; for pest or weed control at 250 g/ha: 250 g ai/ha
Summary of the method: as §1

[7] = system: barnyardgrass (Echinochloa crus-galli); assay: Test G Post-Emergence Protocol; settings: Echinochloa crus-galli, post-emergence, 312 h; for pest or weed control at 15.625 g/ha: 15.625 g ai/ha, evaluated after 13 days (100=total damage to plant; 0=no damage to plant), read-out: Barnyardgrass damage rating; for pest or weed control at 62.5 g/ha: 62.5 g ai/ha, read-out: Barnyardgrass damage rating (100=total damage to plant; 0=no damage to plant); for pest or weed control at 62.5 g/ha / pest or weed control at 250 g/ha: evaluated after 13 days; for pest or weed control at 250 g/ha: 250 g ai/ha, read-out: damage to plant, Barnyardgrass (100=total damage to plant; 0=no damage to plant)
Summary of the method: (§2)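 Post-emergence herbicidal damage, scored visually 0–100 at 13 days. Application at 15.625, 62.5 or 250 g/ha onto 8-day-old plants grown under glasshouse control.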

[8] = system: corn (Zea mays); assay: Test G Post-Emergence Protocol; settings: Zea mays, post-emergence, 312 h; for plant injury at 15.625 g/ha: 15.625 g ai/ha, evaluated after 13 days (100=total damage to plant; 0=no damage to plant), read-out: Corn damage rating; for plant injury at 62.5 g/ha: 62.5 g ai/ha, read-out: Corn damage rating (100=total damage to plant; 0=no damage to plant); for plant injury at 62.5 g/ha / plant injury at 250 g/ha: evaluated after 13 days; for plant injury at 250 g/ha: 250 g ai/ha, read-out: damage to plant, Corn (100=total damage to plant; 0=no damage to plant)
Summary of the method: as §2

[9] = system: giant foxtail (Setaria faberi); assay: Test G Post-Emergence Protocol; settings: Setaria faberi, post-emergence, 312 h; for pest or weed control at 15.625 g/ha: 15.625 g ai/ha, evaluated after 13 days (100=total damage to plant; 0=no damage to plant), read-out: Foxtail, Giant damage rating; for pest or weed control at 62.5 g/ha: 62.5 g ai/ha, read-out: Foxtail, Giant damage rating (100=total damage to plant; 0=no damage to plant); for pest or weed control at 62.5 g/ha / pest or weed control at 250 g/ha: evaluated after 13 days; for pest or weed control at 250 g/ha: 250 g ai/ha, read-out: damage to plant, Foxtail, Giant (100=total damage to plant; 0=no damage to plant)
Summary of the method: as §2

[10] = system: ivy-leaved morning glory (Ipomoea hederacea); assay: Test G Post-Emergence Protocol; settings: Ipomoea, post-emergence, 312 h; for pest or weed control at 15.625 g/ha: 15.625 g ai/ha, evaluated after 13 days (100=total damage to plant; 0=no damage to plant), read-out: Morningglory, Ivy-leaved damage rating; for pest or weed control at 62.5 g/ha: 62.5 g ai/ha, read-out: Morningglory, Ivy-leaved damage rating (100=total damage to plant; 0=no damage to plant); for pest or weed control at 62.5 g/ha / pest or weed control at 250 g/ha: evaluated after 13 days; for pest or weed control at 250 g/ha: 250 g ai/ha, read-out: damage to plant, Morningglory, Ivy-leaved (100=total damage to plant; 0=no damage to plant)
Summary of the method: as §2

[11] = system: redroot pigweed (Amaranthus retroflexus); assay: Test G Post-Emergence Protocol; settings: Amaranthus retroflexus, post-emergence, 312 h; for pest or weed control at 15.625 g/ha: 15.625 g ai/ha, evaluated after 13 days (100=total damage to plant; 0=no damage to plant), read-out: Pigweed, Redroot damage rating; for pest or weed control at 62.5 g/ha: 62.5 g ai/ha, read-out: Pigweed, Redroot damage rating (100=total damage to plant; 0=no damage to plant); for pest or weed control at 62.5 g/ha / pest or weed control at 250 g/ha: evaluated after 13 days; for pest or weed control at 250 g/ha: 250 g ai/ha, read-out: damage to plant, Pigweed, Redroot (100=total damage to plant; 0=no damage to plant)
Summary of the method: as §2

[12] = system: velvetleaf (Abutilon theophrasti); assay: Test G Post-Emergence Protocol; settings: Abutilon theophrasti, post-emergence, 312 h; for pest or weed control at 15.625 g/ha: 15.625 g ai/ha, evaluated after 13 days (100=total damage to plant; 0=no damage to plant), read-out: Velvetleaf damage rating; for pest or weed control at 62.5 g/ha: 62.5 g ai/ha, read-out: Velvetleaf damage rating (100=total damage to plant; 0=no damage to plant); for pest or weed control at 62.5 g/ha / pest or weed control at 250 g/ha: evaluated after 13 days; for pest or weed control at 250 g/ha: 250 g ai/ha, read-out: damage to plant, Velvetleaf (100=total damage to plant; 0=no damage to plant)
Summary of the method: as §2

| SMILES | pest or weed control at 15.625 g/ha [1] | pest or weed control at 62.5 g/ha [1] | pest or weed control at 250 g/ha [1] | plant injury at 15.625 g/ha [2] | plant injury at 62.5 g/ha [2] | plant injury at 250 g/ha [2] | pest or weed control at 15.625 g/ha [3] | pest or weed control at 62.5 g/ha [3] | pest or weed control at 250 g/ha [3] | pest or weed control at 15.625 g/ha [4] | pest or weed control at 250 g/ha [4] | pest or weed control at 15.625 g/ha [5] | pest or weed control at 62.5 g/ha [5] | pest or weed control at 250 g/ha [5] | pest or weed control at 15.625 g/ha [6] | pest or weed control at 62.5 g/ha [6] | pest or weed control at 250 g/ha [6] | pest or weed control at 15.625 g/ha [7] | pest or weed control at 62.5 g/ha [7] | pest or weed control at 250 g/ha [7] | also measured |
| --- | --- | --- | --- | --- | --- | --- | --- | --- | --- | --- | --- | --- | --- | --- | --- | --- | --- | --- | --- | --- | --- |
| C[C@@]1(C(=O)Nc2cccc(F)c2F)C(=O)NC[C@@H]1c1ccc(C(F)(F)F)cc1 (racemic) [Compound 1405] | 0% | 0% | 0% | 0% | 0% | 0% | 0% | 0% | 0% | 0% | 0% | 0% | 0% | 0% | 0% | 0% | 0% | 0% | 0% | 0% | pest or weed control at 62.5 g/ha [4]: 0%; plant injury at 15.625 g/ha [8]: 0%; plant injury at 62.5 g/ha [8]: 0%; plant injury at 250 g/ha [8]: 0%; pest or weed control at 15.625 g/ha [9]: 0%; pest or weed control at 62.5 g/ha [9]: 0%; pest or weed control at 250 g/ha [9]: 0%; pest or weed control at 15.625 g/ha [10]: 0%; pest or weed control at 62.5 g/ha [10]: 0%; pest or weed control at 250 g/ha [10]: 0%; pest or weed control at 15.625 g/ha [11]: 0%; pest or weed control at 62.5 g/ha [11]: 0%; pest or weed control at 250 g/ha [11]: 0%; pest or weed control at 15.625 g/ha [12]: 0%; pest or weed control at 62.5 g/ha [12]: 0%; pest or weed control at 250 g/ha [12]: 0% |
| CSc1nc(NC(=O)[C@@H]2C(=O)N(C)C[C@H]2c2ccc(C(F)(F)F)cc2)n[nH]1 (racemic) [Compound 1539] | 0% | 10% | 20% | 0% | 0% | 0% | 0% | 10% | 20% | 0% | 0% | 0% | 0% | 0% | 0% | 0% | 0% | 0% | 0% | 0% | plant injury at 15.625 g/ha [8]: 0%; plant injury at 62.5 g/ha [8]: 0%; plant injury at 250 g/ha [8]: 0%; pest or weed control at 15.625 g/ha [9]: 0%; pest or weed control at 62.5 g/ha [9]: 0%; pest or weed control at 250 g/ha [9]: 0%; pest or weed control at 15.625 g/ha [10]: 0%; pest or weed control at 62.5 g/ha [10]: 0%; pest or weed control at 250 g/ha [10]: 0%; pest or weed control at 15.625 g/ha [11]: 0%; pest or weed control at 62.5 g/ha [11]: 0%; pest or weed control at 250 g/ha [11]: 0%; pest or weed control at 15.625 g/ha [12]: 0%; pest or weed control at 62.5 g/ha [12]: 0%; pest or weed control at 250 g/ha [12]: 0% |
| COc1cncc(NC(=O)[C@@H]2C(=O)N(C)C[C@H]2c2ccc(C(F)(F)F)cc2)n1 (racemic) [Compound 1565] | 0% | 0% | 10% | 0% | 0% | 0% | 0% | 0% | 60% | 0% | 0% | 0% | 0% | 10% | 0% | 0% | 0% | 0% | 0% | 10% | pest or weed control at 62.5 g/ha [4]: 0%; plant injury at 15.625 g/ha [8]: 0%; plant injury at 62.5 g/ha [8]: 0%; plant injury at 250 g/ha [8]: 10%; pest or weed control at 15.625 g/ha [9]: 0%; pest or weed control at 62.5 g/ha [9]: 0%; pest or weed control at 250 g/ha [9]: 50%; pest or weed control at 15.625 g/ha [10]: 0%; pest or weed control at 62.5 g/ha [10]: 0%; pest or weed control at 250 g/ha [10]: 0%; pest or weed control at 15.625 g/ha [11]: 0%; pest or weed control at 62.5 g/ha [11]: 0%; pest or weed control at 250 g/ha [11]: 0%; pest or weed control at 15.625 g/ha [12]: 0%; pest or weed control at 62.5 g/ha [12]: 0%; pest or weed control at 250 g/ha [12]: 30% |
